Results: US20230058134A1, “ALDOSE REDUCTASE INHIBITORS FOR THE TREATMENT OF ACUTE RESPIRATORY DISTRESS SYNDROME, ACUTE LUNG INFLAMMATION/INJURY, CARDIAC INJURY AND ANTI-VIRAL THERAPY” (Applied Therapeutics, Inc., priority 2020, published 2023)
Entries after “also recorded” stand apart in the source; their conditions may differ.

What was measured:
[1] = system: COVID-19 with signs of ARDS and/or ALI; test: Treatment of Critical COVID-19 (single-patient example written in present tense); type: in vivo; details: one patient, 1500 mg oral twice a day
[2] = system: COVID-19 with severe ARDS; test: Treatment of critical COVID-19 patients with severe ARDS under Emergency Investigational New Drug Applications; type: in vivo, human; details: 1500 mg twice a day
Procedure: Five critical COVID-19 patients admitted to the intensive care unit with severe ARDS were treated with Compound A (caficrestat) 1500 mg twice a day. All patients were on 100% high flow oxygen, had failed all other available treatment options, including anti-IL^6/anti-IL-17 therapy, and were at high risk of rapid progression to mechanical ventilation. The patients were treated under Emergency Investigational New Drug Applications as the last option to prevent mortality.

COVID-19 infection = test: Open-label prospective phase 2 study of Compound A in high risk patients hospitalized with COVID-19, with matched registry controls; details: for Median LOS (95% CI): length of hospital stay, 1500 mg twice daily up to 14 days; for Estimated difference in median LOS / Estimated difference in median LOS (95% CI): Hodges-Lehmann estimate
[3] = 10 participants, 1500 mg twice daily
[4] = eight participants who survived and were discharged

`O=C(O)Cc1nn(Cc2nc3cc(C(F)(F)F)ccc3s2)c(=O)c2nccnc12` [Compound A, caficrestat] was tested, and the “signs of ARDS and/or ALI” value [1] was “diminished”, the viral burden [1] was “reduced” and the “patients recovered and discharged from the hospital” value ([2]; five ICU patients on 100% high flow oxygen) was “Four of the five”. For the same molecule, the patients who died ([2]; five ICU patients, patient had a do not resuscitate order) was “One patient”, the “adverse events leading to early discontinuation of treatment” value (COVID-19 infection; [3]) was “mild-moderate grade adverse events possibly linked to study drug in three participants” and the “safety laboratory monitoring during hospitalization” value (COVID-19 infection; [3]) was “did not demonstrate any treatment-related abnormal findings”. For the same molecule, the percent mortality (COVID-19 infection; 10 participants, death during index hospitalization due to COVID-19 complications) was 20%, the “Median LOS (95% CI)” value (COVID-19 infection; All Subjects, N=10) was 5 (4, 29) and the “Estimated difference in median LOS” value (COVID-19 infection; All Subjects, Compound A vs Match 1 control group (N=16)) was 1.5. The “Estimated difference in median LOS” value (COVID-19 infection; All Subjects, Compound A vs Match 2 control group (N=60)) was 14, the “Median LOS (95% CI)” value (COVID-19 infection; Surviving Subjects, N=8) was 5 (4, 35) and the “Estimated difference in median LOS (95% CI)” value (COVID-19 infection; Surviving Subjects, Compound A vs Match 1 control group (N=11)) was 1 (−2, 19). For the same molecule, the “Estimated difference in median LOS (95% CI)” value (COVID-19 infection; Surviving Subjects, Compound A vs Match 2 control group (N=43)) was 9 (0, 42), the “median hospital length of stay” value (COVID-19 infection; [4]) was 5 days and the “range of hospital length of stay” value (COVID-19 infection; [4]) was 3 to 35 days. The safety and tolerability (COVID-19 infection; hospitalized COVID-19 patients with diabetes mellitus and hypertension, 1500 mg twice daily) was “generally safe and well tolerated”, the “participants who survived and were discharged from the hospital” value (COVID-19 infection; of 10 treated participants) was “Eight of the ten treated patients survived” and the “progression to mechanical ventilation” value (COVID-19 infection; ten treated patients) was “None of the treated patients progressed to mechanical ventilation”. The “mortality compared with matched control groups” value (COVID-19 infection; vs control group 1 (31.3%) and control group 2 (28.3%), vs non-high risk population) was “numerically lower; also recorded: decreased to the level observed for the non-high risk population” and the “length of hospital stay compared with matched control groups” value (COVID-19 infection; vs the two matched control groups) was “numerically less”.
